This is an account of results in patent US4642332A, “Effective hormonal peptides: D-3-Pal^6 -LHRH” (The Board of Regents, The University of Texas System, priority 1985, dated 1987).

Assay [1] deals with 21 day old female rats. Put plainly: In vivo assay in rats for release of LH and FSH. Set-up: species or system rat. To be noted: for Serum FSH ng/ml SEM / Serum LH ng/ml SEM: Table IX, blood sample at ±60 minutes; for Serum FSH ng/ml SEM / Serum LH ng/ml SEM / FSH ng/ml Serum ± SEM at +120 min / LH ng/ml Serum ± SEM at +120 min: mean of 6; for FSH ng/ml Serum ± SEM at +120 min / LH ng/ml Serum ± SEM at +120 min: Table X; for +2 hrs LH ± SEM ng/ml serum / FSH ± SEM ng/ml serum (+2 hrs) / +3 hrs LH ± SEM ng/ml serum / FSH ± SEM ng/ml serum (+3 hrs): Table XI, 150 ng sc, mean 5-6. The protocol:
In vivo rat assay performed by a modification of the method of Bowers, C. Y. et al. Endocrinology, 106, 674 (1980). 21 day old female rats were injected sc with saline or peptide. Blood samples for the RIAs of LH and FSH were collected at +15, +60, +120, or +180 minutes. (Tables VI-XI).

The test system of assay [2] is pituitary cells from 21 day old rats. Kind of assay: In vitro pituitary incubate assay (release of LH and FSH). Format: cell-based, rat. As to conditions: mean of 9. The protocol:
The data in Tables IV and V are from the in vitro assay of the peptides with the pituitary incubate. This assay measures the release of LH and FSH in an in vitro system with pituitary cells from 21 day old rats. See, Bowers, C. Y. et al. on the inhibitory effects of leutinizing hormone releasing hormone analogs. Endocrinology, 106: 674 (1980).
The abbreviations are as follows: sc-subcutaneous, SEM-standard error of the mean; NS-not significant; ng-nanogram, and ml-milliliter. The p value represents the population coefficient .rho.(rho) which signifies whether a sample coefficient is significant or a chance deviation from zero.

[3] abbreviates: Table IV, dosage 0.03 ng/ml medium.
[4] abbreviates: Table IV, dosage 0.1 ng/ml medium.
Setting [5] is: Table IV, dosage 0.3 ng/ml medium.
Setting [6] is: Table IV, dosage 1.0 ng/ml medium.
Where [7] appears, read: Table V, dosage .03 ng/ml medium.
Where [8] appears, read: Table V, dosage .10 ng/ml medium.
[9] abbreviates: Table V, dosage .30 ng/ml medium.
Where [10] appears, read: Table VI, 15 ng/rat sc, mean of 9.
Setting [11] is: Table VI, 50 ng/rat sc, mean of 9.
Setting [12] is: Table VI, 150 ng/rat sc, mean of 9.
[13] abbreviates: Table VIII first section (time not given), 15 ng/rat sc, mean of 5-6.
[14] abbreviates: Table VIII first section (time not given), 50 ng/rat sc, mean of 5-6.
Where [15] appears, read: Table VIII first section (time not given), 150 ng/rat sc, mean of 5-6.
Setting [16] is: Table VIII, ±60 min after injection, 150 ng/rat sc, mean of 5-6.

Take `CCNC(=O)[C@@H]1CCCN1C(=O)[C@H](CCCNC(=N)N)NC(=O)[C@H](CC(C)C)NC(=O)[C@@H](Cc1cccnc1)NC(=O)[C@H](Cc1ccc(O)cc1)NC(=O)[C@H](CO)NC(=O)[C@H](Cc1c[nH]c2ccccc12)NC(=O)[C@H](Cc1c[nH]cn1)NC(=O)[C@@H]1CCC(=O)N1` [Peptide 21436, pyroGlu-His-Trp-Ser-Tyr-D-3-Pal-Leu-Arg-Pro-NHC2 H5]: in assay [1] (50 ng/rat sc), the “Serum FSH ng/ml SEM” value came out at 3471 ± 229 ng/mL, the “Serum LH ng/ml SEM” value worked out at 116 ± 20 ng/mL, the “FSH ng/ml Serum ± SEM at +120 min” value worked out at 4692 ± 393 ng/mL and the “LH ng/ml Serum ± SEM at +120 min” value came to 291 ± 11 ng/mL. Besides, in assay [1] (150 ng/rat sc), the “Serum FSH ng/ml SEM” value worked out at 1458 ± 424 ng/mL, the “Serum LH ng/ml SEM” value was found to be 144 ± 37 ng/mL, the “FSH ng/ml Serum ± SEM at +120 min” value amounted to 4811 ± 782 ng/mL and the “LH ng/ml Serum ± SEM at +120 min” value worked out at 278 ± 14 ng/mL. Moreover, in assay [1], the “+2 hrs LH ± SEM ng/ml serum” value came to 237 ± 52 ng/mL, the “FSH ± SEM ng/ml serum (+2 hrs)” value stood at 2415 ± 361 ng/mL, the “+3 hrs LH ± SEM ng/ml serum” value is 106 ± 13 ng/mL and the “FSH ± SEM ng/ml serum (+3 hrs)” value stood at 2205 ± 298 ng/mL.

For `CNC(=O)[C@@H]1CCCN1C(=O)[C@H](CCCNC(=N)N)NC(=O)[C@H](CC(C)C)NC(=O)[C@@H](Cc1cccnc1)NC(=O)[C@H](Cc1ccc(O)cc1)NC(=O)[C@H](CO)NC(=O)[C@H](Cc1c[nH]c2ccccc12)NC(=O)[C@H](Cc1c[nH]cn1)NC(=O)[C@@H]1CCC(=O)N1` [Peptide 21437, pryoGlu-His-Trp-Ser-Tyr-D-3-Pal-Leu-Arg-Pro-NHCH3], in assay [1] (50 ng/rat sc), the “Serum FSH ng/ml SEM” value is 1707 ± 518 ng/mL and the “Serum LH ng/ml SEM” value stood at 47 ± 8 ng/mL. Further, in assay [1] (150 ng/rat sc), the “Serum FSH ng/ml SEM” value was 2799 ± 783 ng/mL and the “Serum LH ng/ml SEM” value turned out to be 111 ± 26 ng/mL.

As to “LHRH: peptide hormone known as the leutinizing hormone releasing hormone, exists naturally in the hypothalamus”, the “FSH released into medium (ng/ml) ± SEM” value in assay [2] (setting [3]) was found to be 638 ± 292; in assay [2] (setting [4]), 266 ± 235; in assay [2] (setting [5]), 4556 ± 752; in assay [2] (setting [6]) it was 8063 ± 943. For the same molecule, the “LH ng/ml medium ± SEM” value was determined as 52 ± 20 ng/mL in assay [2] (setting [3]); 214 ± 30 ng/mL in assay [2] (setting [4]); 771 ± 162 ng/mL in assay [2] (setting [5]); 1434 ± 156 ng/mL in assay [2] (setting [6]); 33 ± 24 ng/mL in assay [2] (setting [7]); 206 ± 42 ng/mL in assay [2] (setting [8]). The “LH ng/ml medium ± SEM” value in assay [2] (setting [9]) came to 892 ± 92 ng/mL. The “FSH ng/ml medium ± SEM” value worked out at 598 ± 137 ng/mL in assay [2] (setting [7]), 794 ± 52 ng/mL in assay [2] (setting [8]) and 2709 ± 252 ng/mL in assay [2] (setting [9]). Besides, the “Serum FSH ng/ml SEM” value in assay [1] (50 ng/rat sc) was determined as 909 ± 118 ng/mL; in assay [1] (150 ng/rat sc), 1076 ± 185 ng/mL. Further, the “Serum LH ng/ml SEM” value in assay [1] (50 ng/rat sc) is 5 ± 0.5 ng/mL; in assay [1] (150 ng/rat sc), 17 ± 3 ng/mL. Besides, the “Serum FFSH ng/ml ± SEM” value in assay [1] (setting [10]) amounted to 475 ± 43 ng/mL; in assay [1] (setting [11]) it was 572 ± 68 ng/mL; in assay [1] (setting [12]), 839 ± 73 ng/mL. In addition, the “Serum LH ng/ml ± SEM” value in assay [1] (setting [10]) was determined as 1.3 ± 0.2 ng/mL; in assay [1] (setting [11]) it was 3.2 ± 0.3 ng/mL; in assay [1] (setting [12]) it was 12 ± 3 ng/mL; in assay [1] (setting [13]), 21.0 ± 4.0 ng/mL; in assay [1] (setting [14]), 53.9 ± 9.0 ng/mL; in assay [1] (setting [15]), 62.0 ± 21.0 ng/mL. For the same molecule, the “Serum LH ng/ml ± SEM” value in assay [1] (setting [16]) was 39.0 ± 17 ng/mL. In addition, the “LH ng/ml Serum ± SEM ± 15 min” value in assay [1] (Table VII, dosage 100 mg/rat sc (so in the source), ± 15 min) was 49 ± 10 ng/mL. In addition, the “LH ng/ml Serum ± SEM ± 60 min” value in assay [1] (Table VII, dosage 100 mg/rat sc (so in the source), ± 60 min) stood at 5.5 ± 0.9 ng/mL. In addition, the “Serum FSH ng/ml ± SEM” value in assay [1] (setting [13]) came to 1147 ± 489 ng/mL; in assay [1] (setting [14]) it was 2228 ± 448 ng/mL; in assay [1] (setting [15]) it was 1536 ± 172 ng/mL; in assay [1] (setting [16]) it was 2448 ± 209 ng/mL. Besides, in assay [1], the “+2 hrs LH ± SEM ng/ml serum” value is “.18 ± 0.07 ng/mL”. For the same molecule, the “FSH ± SEM ng/ml serum (+2 hrs)” value in assay [1] was determined as 337 ± 20 ng/mL. The “+3 hrs LH ± SEM ng/ml serum” value in assay [1] was 0.66 ± 0.46 ng/mL. In addition, the “FSH ± SEM ng/ml serum (+3 hrs)” value in assay [1] stood at 487 ± 72 ng/mL. Also, the FSH released in assay [1] (dosage of 15 ng) came out at 572 ± 68 ng. The “release of LH (in words)” value in assay [1] (dosage of 15 ng) is “inactive”.
